US4025533A, “5-Bromo-5-nitro-2-alkylsubstituted-1,3-dioxane” (Eli Lilly and Company, priority 1976, dated 1977)
Values after ≈ are worked out from the molar mass of the structure shown.

How the values were obtained:
[1] = tested on: human skin; conditions: in vivo
Excerpt: The following protocol was followed in testing each compound.
Two-hundred subjects were employed in each investigation. The repeated insult technique was used in the patch test. A different group of subjects were utilized for each evaluation.
The technique used for the patch test called for a series of 9 induction patches of each test material to be placed on each of the subjects. The series was followed two weeks later by a single "challenge" patch of each test material to detect skin sensitization.
The series of nine induction patches was applied on Monday, Wednesday and Thursday and allowed to contact the skin for 24 hours, after which time they were removed and the skin sites graded for irritation. Thursday's patches were placed immediately after removal and grading of Wednesday's applications. After the ninth induction patches had been placed, a non-patching period of 2 weeks elapsed before the challenge patches were applied to detect sensitization reactions. For this 24-hour patch, a new skin site was used. This site was invariably chosen adjacent to an induction site; i.e., one where repeated applications had been made during the series of nine induction patches. The challenge applications were graded at 24 and 72 hours after application.
The skin applications for each material were made using oval-shaped adhesive patches (1" × 11/4") with circular gauze centers. The gauze centers were coated with approximately 0.03 ml. of the respective test material just prior to application.
The scoring criteria used for skin irritation reactions and in evaluating the sensitization evidenced on the challenge application follows:
Four separate formulations of each compound were tested along with two formulations of parabens.
A reading of 5 or more on the 8-point scale was deemed to be indicative of the development of skin sensitization to the test compound.

[2] = tested on: Escherichia coli; assay: conventional tube dilution test (Table I); type: cell-based; conditions: 48 h, antibiotic Number 3 medium, two days at 37° C., read-out: Minimum Inhibitory Concentration
Experimental: (§1) The in vitro antimicrobial activities of Compounds A, B and C, 5-bromo-2-ethyl-5-nitro-1,3-dioxane (Compound D), 5-bromo-5-nitro-2-n-propyl-1,3-dioxane (Compound E), and 5-bromo-2-isopropyl-5-nitro-1,3-dioxane (Compound F) were determined concurrently against Pseudomonas aeruginosa, Staphylococcus aureus, Escherichia coli, and Streptococcus faecalis in a conventional tube dilution test. The medium used was antibiotic Number 3 [CFR 436.102(3)] and the concentration of organisms was 10^4 organisms per ml of medium, with each tube being inoculated with 0.1 ml of inoculum. The figures shown in Table I are the lowest concentrations in mcg of active compound/ml of medium where no growth occurred in the medium after two days' incubation at 37° C.

[3] = tested on: Streptococcus faecalis; assay: conventional tube dilution test (Table I); type: cell-based; conditions: Enterococcus faecalis, 48 h, antibiotic Number 3 medium, two days at 37° C., read-out: Minimum Inhibitory Concentration
Experimental: as §1

[4] = tested on: Staphylococcus aureus; assay: conventional tube dilution test (Table I); type: cell-based; conditions: 48 h, antibiotic Number 3 medium, two days at 37° C., read-out: Minimum Inhibitory Concentration
Experimental: as §1

[5] = tested on: Pseudomonas aeruginosa; assay: conventional tube dilution test (Table I); type: cell-based; conditions: 48 h, antibiotic Number 3 medium, two days at 37° C., read-out: Minimum Inhibitory Concentration
Experimental: as §1

[6] = tested on: Candida albicans; assay: agar plate system (Table II); type: cell-based; conditions: antibiotic medium 22, 72 hours at 30° C., read-out: Minimum Inhibitory Concentration
Experimental: (§2) The antimicrobial activities of Compounds A, B, C, D, E and F were also determined in an agar plate system. The compounds were added to melted and cooled (50° C.) agar in twofold concentration increments from 50 mcg per ml of agar to 1.56 mcg per ml of agar. Antibiotic medium 1 [CFR 436.102(1)] was used for testing of Pseudomonas aeruginosa, Staphylococcus aureus, Escherichia coli, and Streptococcus faecalis, but antibiotic medium 22 [CFR 436.102(22)] was used for testing of Candida albicans and Aspergillus niger. Organism suspensions containing 10^6 organisms per ml were used as stock suspensions. Sterile cotton swabs were dipped in the suspensions and then streaked across the solidified agar. The figures shown in Table II were the lowest concentrations at which no growth occurred after 72 hours at 30° C. These values were interpreted as the minimum inhibitory concentration (MIC).

[7] = tested on: Escherichia coli; assay: agar plate system (Table II); type: cell-based; conditions: antibiotic medium 1, 72 hours at 30° C., read-out: Minimum Inhibitory Concentration
Experimental: as §2

[8] = tested on: Streptococcus faecalis; assay: agar plate system (Table II); type: cell-based; conditions: Enterococcus faecalis, antibiotic medium 1, 72 hours at 30° C., read-out: Minimum Inhibitory Concentration
Experimental: as §2

[9] = tested on: Aspergillus niger; assay: agar plate system (Table II); type: cell-based; conditions: antibiotic medium 22, 72 hours at 30° C., read-out: Minimum Inhibitory Concentration
Experimental: as §2

[10] = tested on: Staphylococcus aureus; assay: agar plate system (Table II); type: cell-based; conditions: antibiotic medium 1, 72 hours at 30° C., read-out: Minimum Inhibitory Concentration
Experimental: as §2

[11] = tested on: Pseudomonas aeruginosa; assay: agar plate system (Table II); type: cell-based; conditions: antibiotic medium 1, 72 hours at 30° C., read-out: Minimum Inhibitory Concentration
Experimental: as §2

[12] = tested on: microorganisms; assay: antimicrobial tests on isomeric mixtures; type: cell-based; conditions: one high in the cis- form, the other high in the trans- form
Experimental: The novel compounds of this embodiment of the present invention, exemplified in Examples 1, 2, 3, and 4 can exist as cis- and trans-isomers. The procedure outlined in Example 1 produces a ratio of isomers of about 9:1. It is the intent of this invention to include both geometric isomers as chemical entities as well as the isomeric mixture. […] Consequently, the utility tests described hereinafter were conducted employing the isomeric mixture (about 9:1) prepared as detailed in Example 1.

[13] = tested on: Candida albicans; assay: in vitro agar plate determination (Table VII); type: cell-based; conditions: agar plates at 10, 25 and 50 mcg. per ml., 24 hours, read-out: Minimum Inhibitory Concentration
Experimental: (§3) The antimicrobial activities of […] (Compound G) were determined concurrently with 5-bromo-2-methyl-5-nitro-1,3-dioxane (Compound C) and 5-bromo-5-nitro-1,3-dioxane (Compound B) against the same six organisms shown in Table II. […] The tests were in vitro determinations utilizing agar plates containing the active compound at 10, 25 and 50 mcg. per ml. of agar. The organisms, at concentrations of 10^6 organisms per milliliter, were streaked on the solidified agar. The plates were incubated for 24 hours and the presence or absence of growth noted. The minimum inhibitory concentration (MIC) was determined as the lowest active compound concentration in the agar where no growth occurred.

[14] = tested on: Escherichia coli; assay: in vitro agar plate determination (Table VII); type: cell-based; conditions: agar plates at 10, 25 and 50 mcg. per ml., 24 hours, read-out: Minimum Inhibitory Concentration
Experimental: as §3

[15] = tested on: Streptococcus faecalis; assay: in vitro agar plate determination (Table VII); type: cell-based; conditions: Enterococcus faecalis; agar plates at 10, 25 and 50 mcg. per ml., 24 hours; read-out: Minimum Inhibitory Concentration
Experimental: as §3

[16] = tested on: Aspergillus niger; assay: in vitro agar plate determination (Table VII); type: cell-based; conditions: agar plates at 10, 25 and 50 mcg. per ml., 24 hours, read-out: Minimum Inhibitory Concentration
Experimental: as §3

[17] = tested on: Staphylococcus aureus; assay: in vitro agar plate determination (Table VII); type: cell-based; conditions: agar plates at 10, 25 and 50 mcg. per ml., 24 hours, read-out: Minimum Inhibitory Concentration
Experimental: as §3

[18] = tested on: Pseudomonas aeruginosa; assay: in vitro agar plate determination (Table VII); type: cell-based; conditions: agar plates at 10, 25 and 50 mcg. per ml., 24 hours, read-out: Minimum Inhibitory Concentration
Experimental: as §3

[19] = tested on: Propionibacterium acnes; assay: conventional tube dilution test, anaerobic; type: cell-based; conditions: Cutibacterium acnes, medium pH 6.9, read-out: minimum inhibitory concentration
Experimental: For example, 5-bromo-2-methyl-5-nitro-1,3-dioxane (Compound C) was tested against Propionibacterium acnes (formerly called Corynebacterium acnes) in a conventional tube dilution test. A simultaneous test was run utilizing 2-bromo-2-nitropropane,1,3-diol (Compound A) and 5-bromo-5-nitro-1,3-dioxane (Compound B) as the antimicrobials.
The test against Propionibacterium acnes were run anaerobically in the following medium:
(§4) Distilled water q.s. -- 1000 ml
The pH of the medium was 6.9

[20] = solubility in water and mineral oil; type: physicochemical; conditions: compared with other species of the invention
[21] = chemical stability towards pH / alkali; type: physicochemical; conditions: pH 5-9
[22] = tested on: Fusarium oxysporum cubense; assay: In Vitro Antifungal Activity, agar plates (Table III); type: cell-based; conditions: 72 h, three days at 25° C., pH 5.7, read-out: Minimum Inhibitory Concentration
Experimental: (§5) Compounds A, B, and C were tested further to determine antifungal activity. The compounds were added to melted and cooled (50° C.) agar to obtain concentrations of 100, 50, 25, 12.5, 6.25 and 0.0 mcg per ml of agar. After the agar solidified, sterile cotton swabs were dipped in stock suspensions of the organisms (10^6 organisms per ml of physiological saline) and then streaked across the agar. After three days' incubation at 25° C., concentrations which prevented growth were recorded as the minimal inhibitory concentration. The composition of the medium used in this study was as follows:
(§6) Calcium carbonate -- 0.5 g
(§7) V-8 juice filtrate -- 200.0 ml
as §4
(§8) The pH was adjusted to 5.7.

[23] = tested on: Saccharomyces pastorianus; assay: as above; type: cell-based; conditions: 72 h, three days at 25° C., pH 5.7, read-out: Minimum Inhibitory Concentration
Experimental: as §5, §6, §7, §4, §8

[24] = tested on: Aspergillus fumigatus; assay: as above; type: cell-based; conditions: 72 h, three days at 25° C., pH 5.7, read-out: Minimum Inhibitory Concentration
Experimental: as §5, §6, §7, §4, §8

[25] = tested on: Rhodotorula glutinis; assay: as above; type: cell-based; conditions: 72 h, three days at 25° C., pH 5.7, read-out: Minimum Inhibitory Concentration
Experimental: as §5, §6, §7, §4, §8

[26] = tested on: Botrytis cinerea; assay: as above; type: cell-based; conditions: 72 h, three days at 25° C., pH 5.7, read-out: Minimum Inhibitory Concentration
Experimental: as §5, §6, §7, §4, §8

[27] = tested on: Colletotrichum phomoides; assay: as above; type: cell-based; conditions: 72 h, three days at 25° C., pH 5.7, read-out: Minimum Inhibitory Concentration
Experimental: as §5, §6, §7, §4, §8

[28] = tested on: Aspergillus terreus; assay: as above; type: cell-based; conditions: 72 h, three days at 25° C., pH 5.7, read-out: Minimum Inhibitory Concentration
Experimental: as §5, §6, §7, §4, §8

[29] = tested on: Penicillium notatum; assay: as above; type: cell-based; conditions: Penicillium chrysogenum, 72 h, three days at 25° C., pH 5.7, read-out: Minimum Inhibitory Concentration
Experimental: as §5, §6, §7, §4, §8

[30] = tested on: Chaetomium globosum; assay: as above; type: cell-based; conditions: 72 h, three days at 25° C., pH 5.7, read-out: Minimum Inhibitory Concentration
Experimental: as §5, §6, §7, §4, §8

[31] = tested on: Microsporum gypseum; assay: as above; type: cell-based; conditions: Nannizzia gypsea, 72 h, three days at 25° C., pH 5.7, read-out: Minimum Inhibitory Concentration
Experimental: as §5, §6, §7, §4, §8

## CC1OCC(Br)([N+](=O)[O-])CO1 (stereo not shown) [Compound C, 5-bromo-2-methyl-5-nitro-1,3-dioxane]
[1]
  subjects evaluated as being sensitive on the challenge test: none
[2]
  MIC: 25 µg/mL (≈ 111 µM)
[3]
  MIC: 25 µg/mL (≈ 111 µM)
[4]
  MIC: 25 µg/mL (≈ 111 µM)
[5]
  MIC: 25 µg/mL (≈ 111 µM)
[6]
  MIC: 6.25 µg/mL (≈ 27.7 µM)
[7]
  MIC: 12.5 µg/mL (≈ 55.3 µM)
[8]
  MIC: 12.5 µg/mL (≈ 55.3 µM)
[9]
  MIC: 12.5 µg/mL (≈ 55.3 µM)
[10]
  MIC: 12.5 µg/mL (≈ 55.3 µM)
[11]
  MIC: 25 µg/mL (≈ 111 µM)
[12]
  antimicrobial activity of isomeric mixtures: equal activity
[13]
  MIC: 6.25 µg/mL (≈ 27.7 µM)
[14]
  MIC: 12.5 µg/mL (≈ 55.3 µM)
[15]
  MIC: 12.5 µg/mL (≈ 55.3 µM)
[16]
  MIC: 12.5 µg/mL (≈ 55.3 µM)
[17]
  MIC: 12.5 µg/mL (≈ 55.3 µM)
[18]
  MIC: 25 µg/mL (≈ 111 µM)
[19]
  MIC: 6.25 µg/mL (≈ 27.7 µM)
[20]
  solubility in water and oil, qualitative: superior solubility in water and oil
[21]
  chemical stability at pH: chemically stable at pH's from 5.0 to 9.0
[22]
  MIC: 12.5 µg/mL (≈ 55.3 µM)
[23]
  MIC: > 100 µg/mL
[24]
  MIC: < 6.25 µg/mL
[25]
  MIC: 100 µg/mL (≈ 442 µM)
[26]
  MIC: 12.5 µg/mL (≈ 55.3 µM)
[27]
  MIC: 100 µg/mL (≈ 442 µM)
[28]
  MIC: 12.5 µg/mL (≈ 55.3 µM)
[29]
  MIC: 25 µg/mL (≈ 111 µM)
[30]
  MIC: < 6.25 µg/mL
[31]
  MIC: 100 µg/mL (≈ 442 µM)
